# Assay results: US9050343B2 (ACADIA Pharmaceuticals Inc., priority 2007, dated 2015)
# Values joined by “and” are separate entries in the source; they are usually repeats but may differ in a detail not shown here. Equal values may be shown once. Read-outs that look alike come from different tables or passages of the source.
# Legend:
# prolactin levels = conditions: haloperidol-treated patients compared to risperidone patients
# catalepsy in rats = experiment: Catalepsy assessment; type: in vivo
# Description: (§1) Male non-Swiss albino (NSA) mice and Sprague-Dawley (SD) rats (Harlan, San Diego, Calif.) served as subjects for the present investigation. Animals were housed in climate-controlled rooms on a 12/12 light dark cycle with on lights at 0600 hr. Rats were housed in groups of two and mice were housed in groups of eight. Food and water was available ad libitum except during experimental procedures.
# In order to generate dose-response curves raw CVs were converted to percentage maximum possible catalepsy (% MPC): % MPC=((CV drug or drug combination−CV vehicle control)/(120−CV vehicle control))*100. […] Each dose or dose combination was assessed in separate groups of rats.
# [1] = test system: amphetamine-induced hyperlocomotion in mice; experiment: Amphetamine-induced hyperlocomotor activity assay; type: in vivo; conditions: for suppression of amphetamine-induced hyperlocomotion: pimavanserin at 0.03 mg/kg sc; for suppression of amphetamine-induced hyperlocomotor activity: antipsychotic combined with a fixed dose of pimavanserin (0.03 mg/kg)
# serum prolactin levels = experiment: Prolactin assay (serum prolactin); type: in vivo, rats; conditions: for serum prolactin levels, dose response: compared to vehicle controls, pimavanserin up to 3 mg/kg, FIG. 20A
# Description: as §1
# Rats were deeply anesthetized with isoflurane and blood samples were obtained by cardiac puncture, allowed to clot and then centrifuged at 12,000 rpm for 10 min to yield serum for analysis. Serum prolactin levels were quantified using a commercially available enzyme immunoassay kit (ALPCO Diagnostics, Windham, N.H.).
# [2] = test system: dizocilpine-induced hyperlocomotion in mice; experiment: Dizocilpine-induced hyperlocomotor activity assay and isobolographic analysis; type: in vivo; conditions: for ID50: agent alone, sc
# [3] = haloperidol 2 mg per day alone or with pimavanserin 20 mg per day
# [4] = test system: hyperactivity in mice induced by MK-801; experiment: MK-801 induced hyperactivity; conditions: oral doses of 3 and 10 mg/kg
# [5] = test system: rat model of deficits in sensory motor gating; experiment: Sensory motor gating deficit induced by DOI; conditions: doses of 1 and 3 mg/kg SC
# muscarinic receptors = experiment: Activity at muscarinic receptors
# Description: (§2) Further, the compound lacks potency at the 5HT2B receptor that controls gastrointestinal function and myocardial development.
# [6] = Pimavanserin plasma pharmacokinetics fitted to 1-compartment model; type: in vivo
# Description: Initial parameters for the simulation were obtained by fitting mean plasma concentration-time data to a 1-compartment model (first order input, no lag time and first order elimination).
# alpha-adrenergic = experiment: Alpha-adrenergic antagonist activity
# Description: as §2
# [7] = test system: auto-shaped response in mice; experiment: Learning of a simple auto-shaped response; conditions: intraperitoneal doses up to 32 mg/kg
# [8] = multiple oral doses; cited from earlier work
# [9] = Simulation of pimavanserin plasma concentration-time profile, 20 mg once daily; conditions: initial parameter for simulation, 20 mg once daily oral
# [10] = Brain levels of pimavanserin and haloperidol; conditions: Pim + Veh
# [11] = test system: radial arm maze in vivo mouse model of cognition; experiment: Radial arm maze model of cognition; design: species or system mice; conditions: pimavanserin (1 mg/kg) in combination with risperidone; FIG. 19
# [12] = test system: in vivo mouse model of cognition; experiment: Novel object recognition assay; design: species or system mice; conditions: pimavanserin (0.3 mg/kg) in combination with risperidone or olanzapine; FIG. 18
# Description: Compounds were administered to mice at one hour post-training (a time-point at which animals normally behaviorally discriminate between novel and familiar objects) and two hours post-training (a time-point at which these animals normally no longer discriminate between objects).
# histaminergic receptors = experiment: Activity at histaminergic receptors
# Description: as §2
# 5HT2B receptor = 5HT2B receptor (Homo sapiens, UniProt P41595); experiment: Potency at 5HT2B receptor
# Description: […]. Further, the compound lacks potency at the 5HT2B receptor that controls gastrointestinal function and myocardial development.
# [13] = Unbound fraction in plasma; type: in vitro ADME; conditions: parameter used for occupancy simulation, read-out: fu (unbound fraction in plasma)
# Description: CR may then be calculated using equation 2. CR=fu*Cpl(t), where fu is the free fraction of drug in plasma and Cpl(t) is the plasma concentration at time t.
# [14] = test system: DOI induced head twitches in the rat; experiment: DOI induced head twitches; conditions: oral doses of 3 and 10 mg/kg
# [15] = initial parameter for simulation, 5 mg once daily oral
# [16] = test system: schizophrenic subjects with an acute exacerbation of psychosis; experiment: Randomized double blind study in schizophrenic subjects: PANSS and CGI-S; type: in vivo, human
# [17] = combined with a fixed dose of pimavanserin (0.03 mg/kg)
# [18] = 14th oral dose of 50 mg, 1-compartment model
# [19] = plasma, 14th oral dose of 50 mg, 1-compartment model
# Sequence of 5HT2B receptor (P41595 whole entry): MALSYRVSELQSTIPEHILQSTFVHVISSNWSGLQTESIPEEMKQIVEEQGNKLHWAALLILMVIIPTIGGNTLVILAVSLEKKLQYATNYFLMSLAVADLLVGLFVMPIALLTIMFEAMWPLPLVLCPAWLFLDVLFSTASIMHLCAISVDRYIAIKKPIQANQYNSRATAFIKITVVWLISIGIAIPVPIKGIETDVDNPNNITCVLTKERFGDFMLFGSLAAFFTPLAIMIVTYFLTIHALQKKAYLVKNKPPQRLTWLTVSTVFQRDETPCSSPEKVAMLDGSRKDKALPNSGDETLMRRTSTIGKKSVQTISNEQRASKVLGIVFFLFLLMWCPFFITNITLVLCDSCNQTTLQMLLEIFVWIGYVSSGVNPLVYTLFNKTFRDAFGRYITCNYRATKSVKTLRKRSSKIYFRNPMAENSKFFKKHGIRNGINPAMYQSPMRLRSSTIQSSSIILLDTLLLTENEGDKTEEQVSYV
compound,measurement,setting,value
"O=C(CCCN1CCC(O)(c2ccc(Cl)cc2)CC1)c1ccc(F)cc1 [Haloperidol, haloperidol]",PRL levels,prolactin levels,lower
same,CD50 (dose that elicits 50% of maximum catalepsy),"catalepsy in rats; agent alone, ip",0.27 mg/kg
same,CD50,catalepsy in rats; in the presence of 1 mg/kg pimavanserin sc,0.24 mg/kg
same,CD50,catalepsy in rats; in the presence of 3 mg/kg pimavanserin sc,0.38 mg/kg
same,CD50,catalepsy in rats; in the presence of 10 mg/kg pimavanserin sc,0.53 mg/kg
same,suppression of amphetamine-induced hyperlocomotion,[1]; agent alone,dose dependently attenuated hyperactivity produced by amphetamine
same,ID50,"[1]; agent alone, sc, from % MPI",0.012 mg/kg
same,suppression of amphetamine-induced hyperlocomotor activity,[1],enhanced suppression of amphetamine-induced hyperlocomotor activity
same,ID50,[1]; [17],0.0013 mg/kg
same,shift of the dose-response curve,[1]; [17],significantly shifted to the left by a factor of approximately 10
same,"serum prolactin levels, dose response",serum prolactin levels,dose-related increase in serum prolactin levels
same,magnitude of prolactinemia,"serum prolactin levels; fixed dose haloperidol (0.1 mg/kg) or risperidone (0.01 mg/kg) in the presence of pimavanserin, FIG. 20B",significantly attenuated
same,serum prolactin levels,"serum prolactin levels; haloperidol 0.1 mg/kg ip, vehicle 31±3",102 ± 12 ng/mL
same,ID50,[2],0.07 mg/kg
same,Mean weight gain,[3],0.7657 kg
same,Final mean weight,[3]; end of study,83.759 kg
OCCOCCN1CCN(C2=Nc3ccccc3Sc3ccccc32)CC1 [quetiapine],suppression of amphetamine-induced hyperlocomotion,[1]; agent alone,dose dependently attenuated hyperactivity produced by amphetamine
same,suppression of amphetamine-induced hyperlocomotor activity,[1],enhanced suppression of amphetamine-induced hyperlocomotor activity
same,shift of the dose-response curve,[1]; [17],shifted to the left
C[C@]12N[C@H](Cc3ccccc31)c1ccccc12 [dizocilpine],total distance traveled (DT),"[2]; dizocilpine 0.3 mg/kg ip, vehicle controls 792±40 cm, 649±67 cm",2227±116 cm and 2020±223 cm
"CC(C)COc1ccc(CNC(=O)N(Cc2ccc(F)cc2)C2CCN(C)CC2)cc1 [Pimavanserin, N-(1-methylpiperidin-4-yl)-N-(4-fluorophenylmethyl)-N′-(4-(2-methylpropyloxy)phenylmethyl)carbamide]",attenuation of hyperactivity induced by MK-801,[4],effective
same,gating deficit induced by DOI,[5],potently reversed the gating deficit induced by DOI
same,catalepsy,catalepsy in rats; doses up to 10 mg/kg,did not elicit catalepsy
same,maximum CV (catalepsy value),"catalepsy in rats; doses up to 10 mg/kg, vehicle 6.8±0.9 sec",10.5 ± 2.4 s
same,activity at the muscarinic receptors,muscarinic receptors,does not have significant activity
same,Absorption rate constant (k01),[6]; [18],0.9197 h⁻¹
same,CL/F,[6]; [18],6.4 L/h
same,Elimination rate constant (k10),[6]; [18],0.0121 h⁻¹
same,half-life,"[6]; plasma, oral, 50 mg",57.3 h
same,Cmax,[6]; [19],89.3 ng/mL
same,Tmax,[6]; [19],4.77 h
same,AUC(0-t),"[6]; plasma, 14th oral dose of 50 mg, 1-compartment model, read-out: AUC (0-24)ss",1890 ng·h/mL
same,suppression of amphetamine-induced hyperlocomotion,[1]; agent alone,failed to suppress hyperlocomotion produced by amphetamine
same,alpha-adrenergic antagonist activities,alpha-adrenergic,lacks the alpha-adrenergic antagonist activities
same,learning of a simple auto-shaped response,[7],failed to disrupt learning of a simple auto-shaped response
same,"oral clearance, previous reported value",[8],25.2 L/h
same,K01,[9],0.9197 L/h
same,V/F,[9],2182727 mL
same,Pimavanserin brain levels,[10],23 (±6) nmol/kg
same,serum prolactin concentrations,"serum prolactin levels; 3 mg/kg pimavanserin sc, 60 min, below the limit of detection, value of 15 ng/mL assigned, vehicle 31±3",15 ± 0 ng/mL
same,"serum prolactin levels, dose response",serum prolactin levels,did not significantly elevate serum prolactin levels
same,working memory errors after repeated trials,[11],improved the cognitive deficit induced by risperidone
same,percent novel object recognition,[12],reverses novel object recognition impairment caused by risperidone and olanzapine
same,activity at the histaminergic receptors,histaminergic receptors,does not have significant activity
same,ID50,[2],0.09 mg/kg
same,potency at the 5HT2B receptor,5HT2B receptor,lacks potency
same,fraction unbound,[13],0.05
same,DOI induced head twitches,[14],effective
"Cc1nc2n(c(=O)c1CCN1CCC(c3noc4cc(F)ccc34)CC1)CCCC2 [Risperidone, risperidone]",K01,[15],0.4403 h⁻¹
same,V1/F,[15],60222 mL
same,effectiveness compared with other treatments,[16]; low dose risperidone (2 mg per day),significantly less effective than the other treatments
same,mean change in PANNS score,"[16]; risperidone 2 mg per day, alone or co-administered with pimavanserin 20 mg per day",16.6 points
same,ID50,[2],0.0045 mg/kg
O=C1CCc2ccc(OCCCCN3CCN(c4cccc(Cl)c4Cl)CC3)cc2N1 [aripiprazole],suppression of amphetamine-induced hyperlocomotion,[1]; agent alone,dose dependently attenuated hyperactivity produced by amphetamine
same,suppression of amphetamine-induced hyperlocomotor activity,[1],enhanced suppression of amphetamine-induced hyperlocomotor activity
same,shift of the dose-response curve,[1]; [17],significantly shifted to the left
CC(N)Cc1ccccc1 (stereo not drawn) [amphetamine],total distance traveled (DT),"[1]; amphetamine 3 mg/kg ip, 15 min session, vehicle controls 876±42 cm",2764±230 cm
